In patent publication US11066409B2, “Bicyclic nitrogen-containing heterocyclic derivatives and pharmaceutical composition comprising the same” (Shionogi & Co., Ltd., priority 2016, dated 2021):

How the values were obtained:
human PXR = human PXR (Homo sapiens (Human), UniProt O75469); assay: Evaluation of activation of human pregnane X receptor (PXR), DPX2 cells; format: cell-based; conditions: 48 hours, emission intensity divided by fluorescence intensity; for PXR 10 μM: compound 10 μM; for PXR 50 μM: compound 50 μM
human PXR, sequence (O75469 whole entry): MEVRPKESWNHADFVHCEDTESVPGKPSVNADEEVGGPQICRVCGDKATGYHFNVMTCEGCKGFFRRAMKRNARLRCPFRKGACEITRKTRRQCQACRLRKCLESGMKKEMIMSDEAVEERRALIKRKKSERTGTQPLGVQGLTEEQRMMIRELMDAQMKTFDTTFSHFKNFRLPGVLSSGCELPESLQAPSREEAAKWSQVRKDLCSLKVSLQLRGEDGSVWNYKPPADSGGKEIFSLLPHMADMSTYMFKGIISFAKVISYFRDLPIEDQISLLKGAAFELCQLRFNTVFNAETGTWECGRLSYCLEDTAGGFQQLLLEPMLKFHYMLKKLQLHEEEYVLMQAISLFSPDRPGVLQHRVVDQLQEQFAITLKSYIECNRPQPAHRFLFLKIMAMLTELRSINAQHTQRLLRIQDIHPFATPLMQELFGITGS
Experimental: A Human PXR activation (Puracyp, Inc.) kit was used for evaluation.
DPX2 cells expressing human PXR were seeded in a 96-well plate at a concentration of 40000 cells/well and cultured at 37° C. under 5% carbon dioxide for 24 hours (medium: culture medium for DPX2 cells containing 10% fetal bovine serum, antibiotics, sodium pyruvate, D-glucose, and phenol red). After culture for 24 hours, a DMSO solution of the compound of the present invention was diluted with a medium (dosing medium for DPX2 cells containing 10% fetal bovine serum, D-glucose, antibiotics, sodium pyruvate, and L-glutamine) so that the final concentration was 10 and 50 μM, and a rifampicin DMSO solution as a positive control drug was 0.2, 1, 2, and 20 μM. The medium was removed from the 96-well plate after culture for 24 hours. 100 μL of the solution of the compound of the present invention and 100 μL of the rifampicin solution prepared were added to each well, and cultured for 48 hours. The medium was removed from the 96-well plate after culture for 48 hours. 100 μL of each reaction mixture obtained by adding 5.25 μL of CellTiter-Fluor to 10.5 mL of TubeE was filled therein. The plate was set in a plate reader (PerkinElmer, Inc.) after culture for 1 hour to measure the fluorescence intensity at an interval of 0.1 seconds per well. The plate was taken out. 100 μL of a solution obtained by adding ONE-Glo Assay Substrate to ONE-Glo Assaybuffer was added to each well. After 2 minutes from the addition of the solution, the plate was set in the plate reader to measure the […] at an interval of 2 seconds per well. The PXR activity of the product of the present invention was a value obtained by dividing the emission intensity by the fluorescence intensity.

[1] = system: partial sciatic nerve ligation model in rats; assay: Analgesic effect in a Seltzer model (partial sciatic nerve ligation), mechanical allodynia by von Frey filaments; format: in vivo; conditions: 1 h, rat, oral, 1 mg/kg, reversal of mechanical allodynia, approximately 1 to 5 hours after administration
Excerpt: Preparation of Partial Sciatic Nerve Ligation Model in Rats
Rats were anaesthetized using isoflurane/O2 inhalation anaesthesia. After induction of anesthesia, the left thigh was shaved. An incision was made in the skin just below the hip bone. The muscle was bluntly dissected to expose the sciatic nerve. About one half (½) of the sciatic nerve thickness was tightly ligated with a nylon thread and the wound was closed. The right thigh was used as a sham-operated control. The right thigh underwent an identical procedure with the left hind limb, however, the sciatic nerve was not manipulated or ligated.
Two weeks after nerve ligation, the effect on mechanical allodynia was assessed using a series of von Frey filaments. For habituation, the rats were placed into a plastic cage on a wire mesh bottom. Von Frey filaments (0.4 to 26 g) were applied to the plantar surface of the rat hind paws from the wire mesh side, and the value of the filament pressure at which the paw was withdrawn was used as a pain threshold. The measurement of mechanical sensitivity of the right and left hind paws was performed to obtain predose mechanical sensitivity. The rats showing the threshold change from 0.6 to 2 g (in nerve ligated side) and 8 to 15 g (in sham operated side) were used in the experiments. On the day before the experiment, the rats were evaluated with a series of von Frey filaments to familiarize them with the test procedure. The adopted animal was administrated with the compounds of the present invention. The compounds of the present invention were homogenized with mortar and pestle and suspended or diluted in 0.5% Methyl Cellulose to prepare 0.03-100 mg/2 mL/kg suspension and orally administered to rat using a syringe attached with a sonde. Post-dose mechanical sensitivities of the right and left hind paws were measured at approximately 1 to 5 hours after drug administration. Percent reversal of mechanical allodynia for each rat was calculated using the following formula. The analgesic effects of the compounds were compared.

human P2X7 receptor = human P2X7 receptor (Homo sapiens (Human), UniProt Q99572, R270H); assay: Evaluation of a human P2X7 receptor inhibitory activity (Yo-Pro uptake, BzATP stimulation, FLIPR TETRA); format: cell-based; conditions: 1321N1 cells stably expressing human P2X7 receptor, Yo-Pro fluorescence
human P2X7 receptor, sequence (Q99572 whole entry R270H): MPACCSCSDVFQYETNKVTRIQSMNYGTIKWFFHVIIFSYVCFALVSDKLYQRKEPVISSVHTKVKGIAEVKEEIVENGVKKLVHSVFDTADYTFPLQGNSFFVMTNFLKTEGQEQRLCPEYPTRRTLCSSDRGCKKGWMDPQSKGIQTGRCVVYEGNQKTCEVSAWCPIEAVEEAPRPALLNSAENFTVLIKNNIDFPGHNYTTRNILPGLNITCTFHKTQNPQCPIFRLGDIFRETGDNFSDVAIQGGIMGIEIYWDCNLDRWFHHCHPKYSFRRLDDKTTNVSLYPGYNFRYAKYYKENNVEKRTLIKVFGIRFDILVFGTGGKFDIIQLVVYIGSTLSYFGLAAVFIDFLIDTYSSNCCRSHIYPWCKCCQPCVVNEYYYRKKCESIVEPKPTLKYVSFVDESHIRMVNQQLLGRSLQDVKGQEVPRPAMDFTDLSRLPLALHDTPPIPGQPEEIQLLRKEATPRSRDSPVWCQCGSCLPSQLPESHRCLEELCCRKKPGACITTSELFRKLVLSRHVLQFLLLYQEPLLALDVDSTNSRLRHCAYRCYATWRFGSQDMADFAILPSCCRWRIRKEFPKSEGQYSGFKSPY
Method in brief: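 1321N1 cells stably expressing human P2X7 (T606C/G952A SNP variant) in HBSS/HEPES pH 7.4–7.5 were loaded with Yo-Pro and stimulated with BzATP on FLIPR TETRA. Compound was added 8 min later and fluorescence followed for 20 min. Inhibition scaled between no-compound (0%) and reference compound (100%); IC50 by logistic fit, reported in bins A–D.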

| SMILES | PXR 10 μM (human PXR) | PXR 50 μM (human PXR) | inhibition in vivo at 1 mg/kg [1] | IC50 (human P2X7 receptor) | IC50 (human P2X7 receptor; class symbols) |
| --- | --- | --- | --- | --- | --- |
| Cc1ccc(C#N)cc1NC1=NC(=O)N(C)C2=NCC(c3cc(F)c(F)c(F)c3)N12 (centres unmarked) [Compound I-0145] | 1.9 | 6.2 | 58% | 19 nM | 10 to 100 nM |
| CCc1nc(OC)ccc1NC1=NC(=O)N(C)C2=NCC(c3cc(F)c(F)c(F)c3)N12 (centres unmarked) [Compound I-0154] | 7.9 | 15.8 | 44% | 17 nM | – |
| COCCOc1ccc(C)c(NC2=NC(=O)N(C)C3=NCC(c4cc(F)c(F)c(F)c4)N23)c1 (centres unmarked) [Compound I-0158] | 1.2 | 4.7 | 47% | 27 nM | – |
| Cc1ccc(CO)cc1NC1=NC(=O)N(C)C2=NCC(c3cc(F)c(F)c(F)c3)N12 (centres unmarked) [Compound I-0161] | 1.2 | 2.5 | 51% | 19 nM | – |
| Cc1cc2c(cc1NC1=NC(=O)N(C)C3=NCC(c4cc(F)c(F)c(F)c4)N13)COC2 (centres unmarked) [Compound I-0164] | 10.6 | 25 | 47% | 28 nM | – |
| Cc1ccc(OC(F)F)cc1NC1=NC(=O)N(C)C2=NCC(c3cc(F)c(F)c(F)c3)N12 (centres unmarked) [Compound I-0192] | 7.9 | 15 | 50% | 18 nM | – |
| COCc1ccc(C)c(NC2=NC(=O)N(C)C3=NCC(c4cc(F)c(F)c(F)c4)N23)c1 (centres unmarked) [Compound I-0201] | 4 | 13.5 | 51% | 26 nM | – |
